{"source": "paper PMC2813863", "about": "“In Vivo Evaluation of α7 Nicotinic Acetylcholine Receptor Agonists [^11C]A-582941 and [^11C]A-844606 in Mice and Conscious Monkeys” (PLoS ONE, 2010)", "key": {"[1]": {"type": "in vivo, mice", "settings": "mice, i.v.", "experimental": "Each tracer was intravenously injected into mice, and then the animals were killed by cervical dislocation at 1, 5, 15, 30 and 60 min after injection (n = 4). The body weight of the mice was 34.7±1.2 g. The injected doses of tracers were 2 MBq/0.049–0.051 nmol. Blood was collected by heart puncture and tissues were harvested. The carbon-11 in the samples was counted with an auto-gamma-counter (LKB Wallac Compu-gamma 1282CS, Turku, Finland) and the tissues were weighed. The tissue uptake of carbon-11 was expressed as the %ID/g."}, "[2]": {"settings": "mice", "experimental": "Each tracer (180 MBq/3.0–13.4 nmol) was intravenously injected into mice, and 15 and 30 min later the animals were killed by cervical dislocation (n = 3). Blood was removed by heart puncture using a heparinized syringe, and the brain was removed. The blood was centrifuged at 7,000×g for 1 min at 4°C to obtain plasma, which was denatured with 5 volume of CH3CN. The mixture was centrifuged under the same conditions, and the precipitate was re-suspended in 0.5 ml of CH3CN, followed by centrifugation. This procedure was repeated three times. The cerebral cortex (approximately 200 mg) was homogenized in 1.0 ml of 50% CH3CN. The homogenate was then treated as described above. The combined supernatant was diluted with 2 volumes of water and then analyzed by HPLC with a radioactivity detector (FLO-ONE 150TR; Packard Instrument, Meriden, CT). A Radial-Pak C18 column equipped with an RCM 8×10 module (8 mm ×100 mm; Waters, Milford, MA) was used with a mixture of CH3CN/H2O/triethyl amine (40/60/0.1 for [^11C]A-582941 and 70/30/0.1 for [^11C]A-844606, v/v/v) as the mobile phase at a flow rate of 2 ml/min. The elution profile was monitored with a radioactivity detector. The retention times of [^11C]A-582941 and [^11C]A-844606 were 6.4 and 8.8 min, respectively. The recovery in the eluate of the injected radioactivity was essentially quantitative."}}, "note": "Values joined by “and” are separate entries in the source; they are usually repeats but may differ in a detail not shown here. Equal values may be shown once. Read-outs that look alike come from different tables or passages of the source."}
{"smiles": "[11CH3]N1CC2CN(c3ccc(-c4ccccc4)nn3)CC2C1", "note": "(stereo not shown) [[^11C]A-582941, 2-[^11C]Methyl-5-[6-phenylpyridazine-3-yl]octahydropyrrolo[3,4-c]pyrrole]", "values": [{"measurement": "time of peak radioactivity in the brain", "setting": "[1]", "result": 5, "unit": "min"}, {"measurement": "% Injected dose/g tissue, Blood", "setting": "[1]; 1 min after injection", "result": "1.84±0.43", "unit": "% Injected dose/g tissue"}, {"measurement": "% Injected dose/g tissue, Brain", "setting": "[1]; 1 min after injection", "result": "2.61±0.33", "unit": "% Injected dose/g tissue"}, {"measurement": "% Injected dose/g tissue, Heart", "setting": "[1]; 1 min after injection", "result": "4.33±0.82", "unit": "% Injected dose/g tissue"}, {"measurement": "% Injected dose/g tissue, Kidney", "setting": "[1]; 1 min after injection", "result": "13.87±1.58", "unit": "% Injected dose/g tissue"}, {"measurement": "% Injected dose/g tissue, Liver", "setting": "[1]; 1 min after injection", "result": "3.59±0.45", "unit": "% Injected dose/g tissue"}, {"measurement": "% Injected dose/g tissue, Lung", "setting": "[1]; 1 min after injection", "result": "18.09±4.18", "unit": "% Injected dose/g tissue"}, {"measurement": "% Injected dose/g tissue, Muscle", "setting": "[1]; 1 min after injection", "result": "2.02±0.34", "unit": "% Injected dose/g tissue"}, {"measurement": "% Injected dose/g tissue, Pancreas", "setting": "[1]; 1 min after injection", "result": "4.65±0.76", "unit": "% Injected dose/g tissue"}, {"measurement": "% Injected dose/g tissue, S. intestine", "setting": "[1]; 1 min after injection", "result": "3.13±0.51", "unit": "% Injected dose/g tissue"}, {"measurement": "% Injected dose/g tissue, Spleen", "setting": "[1]; 1 min after injection", "result": "2.70±0.31", "unit": "% Injected dose/g tissue"}, {"measurement": "% Injected dose/g tissue, Blood", "setting": "[1]; 5 min after injection", "result": "0.89±0.04", "unit": "% Injected dose/g tissue"}, {"measurement": "% Injected dose/g tissue, Brain", "setting": "[1]; 5 min after injection", "result": "3.92±0.49", "unit": "% Injected dose/g tissue"}, {"measurement": "% Injected dose/g tissue, Heart", "setting": "[1]; 5 min after injection", "result": "2.16±0.13", "unit": "% Injected dose/g tissue"}, {"measurement": "% Injected dose/g tissue, Kidney", "setting": "[1]; 5 min after injection", "result": "8.77±0.79", "unit": "% Injected dose/g tissue"}, {"measurement": "% Injected dose/g tissue, Liver", "setting": "[1]; 5 min after injection", "result": "10.52±0.69", "unit": "% Injected dose/g tissue"}, {"measurement": "% Injected dose/g tissue, Lung", "setting": "[1]; 5 min after injection", "result": "12.52±8.59", "unit": "% Injected dose/g tissue"}, {"measurement": "% Injected dose/g tissue, Muscle", "setting": "[1]; 5 min after injection", "result": "1.40±0.16", "unit": "% Injected dose/g tissue"}, {"measurement": "% Injected dose/g tissue, Pancreas", "setting": "[1]; 5 min after injection", "result": "7.47±0.54", "unit": "% Injected dose/g tissue"}, {"measurement": "% Injected dose/g tissue, S. intestine", "setting": "[1]; 5 min after injection", "result": "4.49±0.60", "unit": "% Injected dose/g tissue"}, {"measurement": "% Injected dose/g tissue, Spleen", "setting": "[1]; 5 min after injection", "result": "5.53±0.38", "unit": "% Injected dose/g tissue"}, {"measurement": "% Injected dose/g tissue, Blood", "setting": "[1]; 15 min after injection", "result": "0.76±0.06", "unit": "% Injected dose/g tissue"}, {"measurement": "% Injected dose/g tissue, Brain", "setting": "[1]; 15 min after injection", "result": "3.63±0.28", "unit": "% Injected dose/g tissue"}, {"measurement": "% Injected dose/g tissue, Heart", "setting": "[1]; 15 min after injection", "result": "1.72±0.17", "unit": "% Injected dose/g tissue"}, {"measurement": "% Injected dose/g tissue, Kidney", "setting": "[1]; 15 min after injection", "result": "6.02±0.97", "unit": "% Injected dose/g tissue"}, {"measurement": "% Injected dose/g tissue, Liver", "setting": "[1]; 15 min after injection", "result": "12.38±1.68", "unit": "% Injected dose/g tissue"}, {"measurement": "% Injected dose/g tissue, Lung", "setting": "[1]; 15 min after injection", "result": "7.02±0.10", "unit": "% Injected dose/g tissue"}, {"measurement": "% Injected dose/g tissue, Muscle", "setting": "[1]; 15 min after injection", "result": "1.06±0.09", "unit": "% Injected dose/g tissue"}, {"measurement": "% Injected dose/g tissue, Pancreas", "setting": "[1]; 15 min after injection", "result": "5.80±0.80", "unit": "% Injected dose/g tissue"}, {"measurement": "% Injected dose/g tissue, S. intestine", "setting": "[1]; 15 min after injection", "result": "4.61±0.60", "unit": "% Injected dose/g tissue"}, {"measurement": "% Injected dose/g tissue, Spleen", "setting": "[1]; 15 min after injection", "result": "5.13±0.72", "unit": "% Injected dose/g tissue"}, {"measurement": "% Injected dose/g tissue, Blood", "setting": "[1]; 30 min after injection", "result": "0.64±0.06", "unit": "% Injected dose/g tissue"}, {"measurement": "% Injected dose/g tissue, Brain", "setting": "[1]; 30 min after injection", "result": "2.68±0.29", "unit": "% Injected dose/g tissue"}, {"measurement": "% Injected dose/g tissue, Heart", "setting": "[1]; 30 min after injection", "result": "1.39±0.10", "unit": "% Injected dose/g tissue"}, {"measurement": "% Injected dose/g tissue, Kidney", "setting": "[1]; 30 min after injection", "result": "4.83±0.77", "unit": "% Injected dose/g tissue"}, {"measurement": "% Injected dose/g tissue, Liver", "setting": "[1]; 30 min after injection", "result": "9.87±0.80", "unit": "% Injected dose/g tissue"}, {"measurement": "% Injected dose/g tissue, Lung", "setting": "[1]; 30 min after injection", "result": "6.06±0.31", "unit": "% Injected dose/g tissue"}, {"measurement": "% Injected dose/g tissue, Muscle", "setting": "[1]; 30 min after injection", "result": "0.82±0.07", "unit": "% Injected dose/g tissue"}, {"measurement": "% Injected dose/g tissue, Pancreas", "setting": "[1]; 30 min after injection", "result": "4.68±0.51", "unit": "% Injected dose/g tissue"}, {"measurement": "% Injected dose/g tissue, S. intestine", "setting": "[1]; 30 min after injection", "result": "5.33±1.20", "unit": "% Injected dose/g tissue"}, {"measurement": "% Injected dose/g tissue, Spleen", "setting": "[1]; 30 min after injection", "result": "3.64±0.14", "unit": "% Injected dose/g tissue"}, {"measurement": "% Injected dose/g tissue, Blood", "setting": "[1]; 60 min after injection", "result": "0.57±0.05", "unit": "% Injected dose/g tissue"}, {"measurement": "% Injected dose/g tissue, Brain", "setting": "[1]; 60 min after injection", "result": "1.85±0.10", "unit": "% Injected dose/g tissue"}, {"measurement": "% Injected dose/g tissue, Heart", "setting": "[1]; 60 min after injection", "result": "1.02±0.08", "unit": "% Injected dose/g tissue"}, {"measurement": "% Injected dose/g tissue, Kidney", "setting": "[1]; 60 min after injection", "result": "3.74±0.20", "unit": "% Injected dose/g tissue"}, {"measurement": "% Injected dose/g tissue, Liver", "setting": "[1]; 60 min after injection", "result": "7.24±0.74", "unit": "% Injected dose/g tissue"}, {"measurement": "% Injected dose/g tissue, Lung", "setting": "[1]; 60 min after injection", "result": "4.13±0.15", "unit": "% Injected dose/g tissue"}, {"measurement": "% Injected dose/g tissue, Muscle", "setting": "[1]; 60 min after injection", "result": "0.66±0.05", "unit": "% Injected dose/g tissue"}, {"measurement": "% Injected dose/g tissue, Pancreas", "setting": "[1]; 60 min after injection", "result": "3.69±0.42", "unit": "% Injected dose/g tissue"}, {"measurement": "% Injected dose/g tissue, S. intestine", "setting": "[1]; 60 min after injection", "result": "4.53±1.21", "unit": "% Injected dose/g tissue"}, {"measurement": "% Injected dose/g tissue, Spleen", "setting": "[1]; 60 min after injection", "result": "2.89±0.90", "unit": "% Injected dose/g tissue"}, {"measurement": "percentage of the unchanged form in the brain", "setting": "[2]; 15 min after injection", "result": "95.4±1.9", "unit": "%"}, {"measurement": "percentage of the unchanged form in the plasma", "setting": "[2]; 15 min after injection", "result": "40.5±7.1", "unit": "%"}, {"measurement": "percentage of the unchanged form in the brain", "setting": "[2]; 30 min after injection", "result": "97.4±0.8", "unit": "%"}, {"measurement": "percentage of the unchanged form in the plasma", "setting": "[2]; 30 min after injection", "result": "26.8±6.6% and 26.8%"}]}
